Reference: the supplement of paper PMC10307832

How the values were obtained:
Test in all cases: relative viability (nuclei count vs DMSO), 5 days (fraction); higher = more cells survive
TGX 221 + AZD7762 = compound: CC1=CN2C(=O)C=C(N=C2C(=C1)C(C)NC3=CC=CC=C3)N4CCOCC4 [TGX 221] + NC(=O)Nc1cc(-c2cccc(F)c2)sc1C(=O)N[C@H]1CCCNC1 [AZD7762] (partner 0.2 µM)
How it was run: (§1)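 Relative viability divides the nuclei count in treated wells by that in vehicle wells. Lung cancer cell lines were seeded in 1536-well plates, dosed by pin tool the next day, and fixed and stained after 5 days in one step with final 0.05% Triton X-100, 1% formaldehyde and 1 ug/ml Hoechst. Dosing was a single drug or a fixed anchor-drug dose plus five library-drug doses (not always all listed) in √10 steps, and values are medians of duplicate plates imaged at 4×.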

[1] = compound: C1=CC=C(C(=C1)C2=CC=C(C=C2)C3=CSC4=C3C(=C(C(=O)N4)C#N)O)O + Cc1nc(Nc2ncc(C(=O)Nc3c(C)cccc3Cl)s2)cc(N2CCN(CCO)CC2)n1 [Dasatinib] (partner 0.075 µM)
How it was run: as §1

[2] = compound: C1=CC=C(C(=C1)C2=CC=C(C=C2)C3=CSC4=C3C(=C(C(=O)N4)C#N)O)O + NC(=O)Nc1cc(-c2cccc(F)c2)sc1C(=O)N[C@H]1CCCNC1 [AZD7762] (partner 0.2 µM)
How it was run: as §1

Ricolinostat + Olaparib = compound: O=C(CCCCCCNC(=O)c1cnc(N(c2ccccc2)c2ccccc2)nc1)NO [Ricolinostat] + O=C(c1cc(Cc2n[nH]c(=O)c3ccccc23)ccc1F)N1CCN(C(=O)C2CC2)CC1 [Olaparib] (partner 8 µM)
How it was run: as §1

Cell Line | relative viability (TGX 221 + AZD7762; first compound 0.08 µM) | relative viability (TGX 221 + AZD7762; first compound 0.253 µM) | relative viability (TGX 221 + AZD7762; first compound 0.8 µM) | relative viability (TGX 221 + AZD7762; first compound 2.53 µM) | relative viability (TGX 221 + AZD7762; first compound 8 µM) | relative viability ([1]; first compound 0.08 µM) | relative viability ([1]; first compound 0.253 µM) | relative viability ([1]; first compound 0.8 µM) | relative viability ([1]; first compound 2.53 µM) | relative viability ([1]; first compound 8 µM) | relative viability ([2]; first compound 0.08 µM) | relative viability ([2]; first compound 0.253 µM) | relative viability ([2]; first compound 0.8 µM) | relative viability ([2]; first compound 2.53 µM) | relative viability ([2]; first compound 8 µM) | relative viability (Ricolinostat + Olaparib; first compound 0.08 µM) | relative viability (Ricolinostat + Olaparib; first compound 0.253 µM) | relative viability (Ricolinostat + Olaparib; first compound 0.8 µM) | relative viability (Ricolinostat + Olaparib; first compound 2.53 µM)
NCI-H1793 | 0.295 | 0.303 | 0.313 | 0.347 | 0.266 | 0.356 | 0.354 | 0.419 | 0.4 | 0.326 | 0.401 | 0.411 | 0.473 | 0.53 | 0.432 | 0.692 | 0.825 | 0.903 | 0.902
NCI-H1915 | 0.655 | 0.665 | 0.665 | 0.596 | 0.712 | 0.335 | 0.344 |  | 0.314 | 0.34 | 0.657 | 0.754 | 0.696 | 0.697 | 0.649 | 0.255 | 0.237 | 0.248 | 0.201
NCI-H1944 |  | 0.501 | 0.453 | 0.513 | 0.455 | 0.224 | 0.248 | 0.219 | 0.178 | 0.215 | 0.67 | 0.537 | 0.696 | 0.469 | 0.603 | 0.404 | 0.369 | 0.308 | 0.296
NCI-H1975 | 0.688 | 0.694 | 0.668 | 0.662 | 0.557 | 0.327 | 0.369 | 0.345 | 0.333 | 0.37 | 0.665 | 0.746 | 0.606 | 0.736 | 0.633 | 0.85 | 0.768 | 0.713 | 0.643
NCI-H1993 | 0.676 | 0.657 | 0.685 | 0.899 | 0.785 | 0.619 | 0.701 | 0.596 | 0.544 | 0.549 | 0.812 | 0.841 | 0.811 | 0.74 | 0.646 | 0.883 | 0.875 | 1.02 | 0.892
NCI-H2085 | 0.96 | 0.769 | 0.583 | 0.37 | 0.397 | 0.22 | 0.264 | 0.238 | 0.224 | 0.258 | 0.891 | 1.06 | 0.86 | 1.02 | 0.997 |  | 0.734 | 0.764 | 0.791
NCI-H2087 | 1.04 | 1.23 | 1.37 | 1.2 | 1.21 | 0.67 | 0.878 | 0.969 | 0.925 | 0.703 | 1.58 | 1.2 | 1.25 | 1.41 | 0.75 | 0.502 | 0.588 | 0.671 | 0.357
NCI-H2126 | 0.943 | 0.907 | 1.04 | 0.966 | 1.15 | 0.588 | 0.573 | 0.604 | 0.45 | 0.568 | 1.01 | 1.09 | 0.973 | 1.1 | 0.763 | 0.789 | 0.889 | 0.93 | 0.851
NCI-H2170 | 0.81 | 0.825 | 0.861 | 0.871 | 0.917 | 0.486 | 0.514 | 0.662 | 0.635 | 0.691 | 0.898 | 0.722 | 0.875 | 0.842 | 0.548 | 0.569 | 0.507 | 0.625 | 0.539
NCI-H2342 | 0.421 | 0.448 | 0.496 | 0.489 | 0.524 | 0.315 | 0.345 | 0.309 | 0.354 | 0.284 | 0.432 | 0.536 | 0.446 | 0.474 | 0.358 | 0.444 | 0.535 | 0.421 | 0.46
NCI-H2347 | 0.639 | 0.61 | 0.639 | 0.583 | 0.547 | 0.331 | 0.276 | 0.28 | 0.284 | 0.314 | 0.692 | 0.79 | 0.758 | 0.694 | 0.739 | 0.51 | 0.604 | 0.612 | 0.586
NCI-H2405 | 0.706 | 0.665 | 0.724 | 0.665 | 0.547 | 0.206 | 0.206 | 0.214 | 0.201 | 0.201 | 0.661 |  | 0.752 | 0.635 | 0.686 | 0.705 | 0.858 | 0.814 | 0.937
NCI-H3122 | 0.974 | 0.925 | 1.01 | 0.994 | 0.981 | 1 | 0.715 | 0.91 | 0.829 | 0.721 | 0.985 | 0.987 | 0.995 | 1.03 | 0.917 | 0.571 | 0.618 | 0.54 | 0.55
PC-3 [JPC-3] | 0.689 | 0.72 | 0.817 | 0.755 | 0.758 | 0.818 | 0.731 | 0.913 | 1.11 | 0.953 | 0.597 | 0.935 | 0.645 | 0.745 | 0.618 | 0.865 | 1.06 | 1.07 | 0.971
PC-14 | 0.316 | 0.329 | 0.34 | 0.33 | 0.289 | 0.244 | 0.261 | 0.272 | 0.27 | 0.239 | 0.316 | 0.272 | 0.332 | 0.363 | 0.24 | 0.265 | 0.257 | 0.267 | 0.199
RERF-LC-KJ | 0.909 | 0.926 | 0.965 | 0.863 | 0.949 | 0.765 | 0.889 | 0.854 | 0.771 | 0.657 | 0.884 | 1.06 | 0.947 | 0.778 | 0.553 | 0.897 | 0.894 | 0.773 | 0.582
SW 900 |  | 0.598 | 0.515 | 0.444 | 0.469 | 0.596 | 0.937 | 0.594 | 0.361 | 0.531 |  | 0.625 | 0.607 | 0.692 | 0.563 | 0.845 | 0.836 | 0.853 | 0.621
